# According to patent US20090239868A1 (priority 2007, published 2009):
# System: TGF-β induced PAI-1 production
# Assay: TGF-β induced PAI-1 production in HT1080 cells (Western blotting)
# Assay type: cell-based
# Conditions: Homo sapiens, HT-1080, TGF-β1 10 ng/mL, 6-hours incubation
# Experimental: After incubating HT1080 cells for 48 hours in the MEM medium containing 10% FBS (Fetal Bovine Serum), the medium was changed to a MEM medium containing 1% FBS, and TGF-β1 (final concentration: 10 ng/mL) only, or TGF-β1 (final concentration: 10 ng/mL) and the test substances were added and incubated. As a control, a culture solution without neither TGF-β1 nor the test substances was prepared. After 6-hours incubation, the culture fluids were collected, and the PAI-1 amounts in the culture fluids were measured by the Western blotting. The PAI-1 amount when TGF-β1 only was added being “100%,” and the PAI-1 amount in the control being “0%,” PAI-1 amounts at each concentration of the test substances (PAI-1 inhibition ratios) were calculated, and the concentrations of the compounds, which inhibited PAI-1 production to 50% (IC50) in amount, were obtained.
row,SMILES,IC50 [nM]
1,O=C(Nc1cc(C(F)(F)F)cc(C(F)(F)F)c1)c1cc(Cl)ccc1O [(2)],5
2,O=C(Nc1cc(C(F)(F)F)ccc1C(F)(F)F)c1cc(Br)ccc1O [(3)],83

# System: PAI-1 gene expression induced by PMA
# Assay: not given
# Conditions: J. Immunol., Vol. 165, pp. 3154-3161, 2000; cited from earlier work
row,SMILES,PAI-1 gene expression induced by PMA
1,C[C@@H]1C[C@@H]([C@H](O)CC2CC(=O)NC(=O)C2)C(=O)[C@@H](C)C1 [cycloheximide],inhibiting substance

# System: TGF-β induced PAI-1 production
# Assay: TGF-β induced PAI-1 production in HepG2 cells (Human Serpin E1/PAI-1 DuoSet)
# Assay type: cell-based
# Conditions: Compound Concentration: 0.1 μM
# Experimental: HepG2 cells were seeded on a 96-well culture plate by 2×10^4 cells/well, and were incubated for 24 hours in the MEM medium containing 1% NEAA (Non-Essential Amino Acids), 1 mM pyruvate, and 10% FBS. Then, the medium was changed to a MEM medium containing 1% NEAA, 1 mM pyruvate and 1% FBS, and the cells were further incubated for 24 hours. Subsequently, after the medium was changed to a MEM medium containing 1% NEAA, 1 mM pyruvate and 1% FBS, and then the cells were treated with the test substances (final concentration: 1 μM or 0.1 μM) for one hour, TGF-β1 (final concentration: 1 ng/mL) was added and the cells were further incubated for 24 hours. As controls, a culture solution added TGF-β1 only, and a culture solution cultured without neither the test substances nor TGF-β1 were prepared. After the incubation, the PAI-1 amount was measured using Human Serpin E1/PAI-1 DuoSet (R&D Systems). The PAI-1 amount when treated with TGF-β1 only being “100%”, and the PAI-1 amount when treated without neither the test substances nor TGF-β1 being “0%”, the PAI-1 inhibition ratios of each test substance were calculated.
row,SMILES,Inhibition Ratio (PAI-1) [%]
1,O=C(Nc1cc(C(F)(F)F)cc(C(F)(F)F)c1)c1cc(Cl)ccc1O [(2)],94.8
2,O=C(Nc1cc(C(F)(F)F)cc(C(F)(F)F)c1)c1cc(F)ccc1O [(5)],71.2
3,O=C(Nc1cc(C(F)(F)F)cc(C(F)(F)F)c1)c1cc(Br)ccc1O [(6)],82.3
4,O=C(Nc1cc(C(F)(F)F)cc(C(F)(F)F)c1)c1cc([N+](=O)[O-])ccc1O [(8)],52.8
5,N#Cc1ccc(O)c(C(=O)Nc2cc(C(F)(F)F)cc(C(F)(F)F)c2)c1 [(9)],59.4
6,O=C(Nc1cc(C(F)(F)F)cc(C(F)(F)F)c1)c1cc(C(F)(F)F)ccc1O [(19)],62.2
7,O=C(Nc1cc(C(F)(F)F)cc(C(F)(F)F)c1)c1ccc(Cl)cc1O [(33)],63.3
8,CC(C)c1cc(Br)cc(C(=O)Nc2cc(C(F)(F)F)cc(C(F)(F)F)c2)c1O [(99)],59.1

# Same assay, conditions: Compound Concentration: 1 μM
row,SMILES,Inhibition Ratio (PAI-1) [%]
1,O=C(Nc1cc(C(F)(F)F)cc(C(F)(F)F)c1)c1cc(Cl)ccc1O [(2)],>90
2,O=C(Nc1cc(C(F)(F)F)ccc1C(F)(F)F)c1cc(Br)ccc1O [(3)],>90
3,O=C(Nc1cc(C(F)(F)F)cc(C(F)(F)F)c1)c1ccccc1O [(4)],>90
4,O=C(Nc1cc(C(F)(F)F)cc(C(F)(F)F)c1)c1cc(F)ccc1O [(5)],>90
5,O=C(Nc1cc(C(F)(F)F)cc(C(F)(F)F)c1)c1cc(Br)ccc1O [(6)],>90
6,O=C(Nc1cc(C(F)(F)F)cc(C(F)(F)F)c1)c1cc(I)ccc1O [(7)],>90
7,O=C(Nc1cc(C(F)(F)F)cc(C(F)(F)F)c1)c1cc([N+](=O)[O-])ccc1O [(8)],85.9
8,N#Cc1ccc(O)c(C(=O)Nc2cc(C(F)(F)F)cc(C(F)(F)F)c2)c1 [(9)],>90
9,Cc1ccc(O)c(C(=O)Nc2cc(C(F)(F)F)cc(C(F)(F)F)c2)c1 [(10)],89.2
10,CC(C)(C)c1ccc(O)c(C(=O)Nc2cc(C(F)(F)F)cc(C(F)(F)F)c2)c1 [(11)],70.5
11,CC(C)(/C=C/c1ccccc1)c1ccc(O)c(C(=O)Nc2cc(C(F)(F)F)cc(C(F)(F)F)c2)c1 [(14)],86.6
12,CC(C)(C#Cc1ccccc1)c1ccc(O)c(C(=O)Nc2cc(C(F)(F)F)cc(C(F)(F)F)c2)c1 [(15)],>90
13,O=C(Nc1cc(C(F)(F)F)cc(C(F)(F)F)c1)c1cc(-c2ccccc2)ccc1O [(17)],82.9
14,CC(C)(CCc1ccccc1)c1ccc(O)c(C(=O)Nc2cc(C(F)(F)F)cc(C(F)(F)F)c2)c1 [(18)],55.4
15,O=C(Nc1cc(C(F)(F)F)cc(C(F)(F)F)c1)c1cc(C(F)(F)F)ccc1O [(19)],>90
16,O=C(Nc1cc(C(F)(F)F)cc(C(F)(F)F)c1)c1cc(C(F)(F)C(F)(F)F)ccc1O [(20)],>90
17,CC(=O)c1ccc(O)c(C(=O)Nc2cc(C(F)(F)F)cc(C(F)(F)F)c2)c1 [(26)],46.8
18,COC(=O)c1ccc(O)c(C(=O)Nc2cc(C(F)(F)F)cc(C(F)(F)F)c2)c1 [(28)],>90
19,CC(=O)Oc1ccccc1C(=O)Nc1cc(C(F)(F)F)cc(C(F)(F)F)c1 [(31)],75.2
20,CC(=O)Oc1ccc(Cl)cc1C(=O)Nc1cc(C(F)(F)F)cc(C(F)(F)F)c1 [(32)],>90
21,O=C(Nc1cc(C(F)(F)F)cc(C(F)(F)F)c1)c1ccc(Cl)cc1O [(33)],>90
22,O=C(Nc1cccc(C(F)(F)F)c1F)c1cc(Cl)ccc1O [(35)],>90
23,O=C(Nc1ccc(F)c(C(F)(F)F)c1)c1cc(Cl)ccc1O [(36)],>90
24,O=C(Nc1cc(F)cc(C(F)(F)F)c1)c1cc(Cl)ccc1O [(37)],>90
25,N#Cc1ccc(NC(=O)c2cc(Br)ccc2O)cc1C(F)(F)F [(39)],>90

row,SMILES,Inhibition Ratio (PAI-1) [%]
1,Cc1c(NC(=O)c2cc(Cl)ccc2O)cccc1C(F)(F)F [(40)],>90
2,O=C(Nc1ccc(C(F)(F)F)cc1)c1cc(Cl)ccc1O [(43)],>90
3,O=C(Nc1cccc(Cl)c1)c1cc(Br)ccc1O [(44)],82.4
4,O=C(Nc1ccc(Cl)cc1)c1cc(Br)ccc1O [(45)],>90
5,O=C(Nc1cc(F)cc(F)c1)c1cc(Br)ccc1O [(46)],>90
6,O=C(Nc1cc(Cl)cc(Cl)c1)c1ccccc1O [(47)],35.6
7,O=C(Nc1cc(Cl)cc(Cl)c1)c1ccc(Cl)cc1O [(48)],>90
8,O=C(Nc1cc(Cl)c(Cl)c(Cl)c1)c1cc(Br)ccc1O [(49)],70.7
9,Cc1cc(C)cc(NC(=O)c2cc(Br)ccc2O)c1 [(50)],66.0
10,CC(C)(C)c1cc(NC(=O)c2cc(Cl)ccc2O)cc(C(C)(C)C)c1 [(51)],42.8
11,O=C(Nc1cccc(-c2ccccc2)c1)c1cc(Cl)ccc1O [(52)],81.0
12,COc1cc(NC(=O)c2cc(Cl)ccc2O)cc(-c2ccccc2)c1 [(53)],52.4
13,CC(=O)Oc1ccccc1C(=O)Nc1cc(Cl)cc(Cl)c1 [(54)],78.9
14,O=C(Nc1cc(C(F)(F)F)cc(C(F)(F)F)c1)c1c(O)cccc1O [(55)],>90
15,Cc1ccc(C(=O)Nc2cc(C(F)(F)F)cc(C(F)(F)F)c2)c(O)c1 [(56)],>90
16,O=C(Nc1cc(C(F)(F)F)cc(C(F)(F)F)c1)c1cc(Cl)cc(Cl)c1O [(57)],>90
17,O=C(Nc1cc(C(F)(F)F)cc(C(F)(F)F)c1)c1c(O)c(Cl)cc(Cl)c1Cl [(59)],>90
18,O=C(Nc1cc(C(F)(F)F)cc(C(F)(F)F)c1)c1c(O)cccc1F [(60)],38.1
19,O=C(Nc1cc(C(F)(F)F)cc(C(F)(F)F)c1)c1cccc(Cl)c1O [(61)],>90
20,O=C(Nc1cc(OCC(F)(F)F)cc(C(F)(F)F)c1)c1cc(Cl)ccc1O [(63)],79.5
21,CCCCCCOc1ccc(S(C)(=O)=O)cc1NC(=O)c1cc(Cl)ccc1O [(64)],73.6
22,Cc1ccc(C(=O)C(C)(C)C)cc1NC(=O)c1cc(Cl)ccc1O [(65)],85.5
23,Cc1ccc(-c2ccccc2)cc1NC(=O)c1cc(Cl)ccc1O [(66)],84.1
24,O=C(Nc1cccc(C(F)(F)F)c1)c1cc(Cl)ccc1O [(67)],>90
25,O=C(Nc1cccc(OC(F)(F)F)c1)c1cc(Cl)ccc1O [(68)],>90

row,SMILES,Inhibition Ratio (PAI-1) [%]
1,O=C(Nc1ccc(OC(F)(F)F)cc1)c1cc(Cl)ccc1O [(70)],>90
2,O=C(Nc1ccc(Cl)cc1Cl)c1cc(Cl)ccc1O [(71)],>90
3,CC(C)(C)c1ccc(NC(=O)c2cc(Cl)ccc2O)cc1 [(72)],71.4
4,CCCCCCc1ccc(NC(=O)c2cc(Cl)ccc2O)cc1 [(73)],>90
5,O=C(Nc1ccc(C2CCCCC2)cc1)c1cc(Cl)ccc1O [(74)],87.3
6,O=C(Nc1ccccc1Cl)c1cc(Cl)ccc1O [(77)],74.3
7,CCCCc1ccc(NC(=O)c2cc(Cl)ccc2O)cc1 [(78)],80.6
8,CC(C)c1cccc(NC(=O)c2cc(Cl)ccc2O)c1 [(81)],40.0
9,O=C(Nc1cccc(SC(F)(F)F)c1)c1cc(Cl)ccc1O [(82)],>90
10,O=C(Nc1ccc(SC(F)(F)F)cc1)c1cc(Cl)ccc1O [(83)],>90
11,O=C(Nc1ccc(S(=O)(=O)C(F)(F)F)cc1)c1cc(Cl)ccc1O [(84)],>90
12,O=C(Nc1ccc(F)c(F)c1)c1cc(Cl)ccc1O [(85)],84.0
13,CCC(C)c1ccc(NC(=O)c2cc(Cl)ccc2O)cc1 (centres unmarked) [(87)],89.6
14,O=C(Nc1ccc(OC(F)F)cc1)c1cc(Cl)ccc1O [(90)],>90
15,CC(C)(C)c1cccc(NC(=O)c2cc(Cl)ccc2O)c1 [(92)],>90
16,O=C(Nc1cccc(S(=O)(=O)C(F)(F)F)c1)c1cc(Cl)ccc1O [(94)],>90
17,CCCCCCOc1cccc(NC(=O)c2cc(Cl)ccc2O)c1 [(95)],60.1
18,O=C(Nc1ccc(-c2ccccc2)cc1)c1cc(Cl)ccc1O [(96)],71.0
19,O=C(Nc1cc(C(F)(F)F)cc(C(F)(F)F)c1)c1cccc(-c2ccccc2)c1O [(97)],79.5
20,CC(C)c1cccc(C(=O)Nc2cc(C(F)(F)F)cc(C(F)(F)F)c2)c1O [(98)],42.2
21,CC(C)c1cc(Br)cc(C(=O)Nc2cc(C(F)(F)F)cc(C(F)(F)F)c2)c1O [(99)],89.4
22,Cc1cc(Br)cc(C(=O)Nc2cc(C(F)(F)F)cc(C(F)(F)F)c2)c1O [(100)],>90
23,O=C(Nc1cc(C(F)(F)F)cc(C(F)(F)F)c1)c1cc(Br)cc(-c2ccccc2)c1O [(103)],>90
24,O=C(Nc1cc(C(F)(F)F)cc(C(F)(F)F)c1)c1ccc(-c2ccccc2)cc1O [(106)],>90

# Same assay, conditions: Homo sapiens, TGF-β1 1 ng/mL, 24 hours
row,SMILES,IC50 [nM]
1,O=C(Nc1cc(C(F)(F)F)cc(C(F)(F)F)c1)c1cc(Cl)ccc1O [(2)],~50
